Read-outs that look alike come from different tables or passages of the source. Marks after values point to notes of the source that are not given here.
How the values were obtained:
[1] = Hydrolytic stability tests of tetrazines; format: physicochemical
Description: This solution was filtered and, the decrease of the absorption band at 525 nm was monitored using UV spectroscopy.

[2] = Reactivity of tetrazines towards trans-cyclooct-4-ene-1-ol (competition experiment); details: reference tetrazine 5; reaction with trans-cyclooct-4-ene-1-ol (axial isomer)
Description: A competition experiment was performed to determine the reactivity ratio of a specific tetrazine and 3-(5-acetamido-2-pyridyl)-6-(2-pyridyl)-1,2,4,5-tetrazine (that was chosen as the reference tetrazine), in the inverse-electron demand Diels-Alder reaction with trans-cyclooct-4-ene-1-ol (“minor” isomer with OH in axial position, see: Whitham et al. J. Chem. Soc. (C), 1971, 883-896)).
To acetonitrile (0.100 mL) was added 5 μL of a solution of the specific tetrazine in DMSO (25 mM) and 5 μL of a solution of the reference tetrazine in DMSO (25 mM). This mixture was diluted with water (0.9 mL), and the absolute amounts of both tetrazines were determined by HPLC-MS/PDA analysis. Subsequently, a solution of trans-cyclooct-4-ene-1-ol (axial isomer) in DMSO (25 μL 2.5 mM) was slowly added, and the mixture was stirred for 5 min. Again, the absolute amounts of both tetrazines were determined by HPLC-MS/PDA analysis, and conversions for both tetrazines was calculated. From these conversions, the reactivity ratio (R=k2,TCO/k2,Ref) of both tetrazines was calculated using the mathematical procedure from Ingold and Shaw (J. Chem. Soc., 1927, 2918-2926).

[3] = Stability of trans-cyclooctene derivatives in PBS; details: PBS buffer
Description: (§1) 10 μL of a solution of the specific trans-cyclooctene derivative in dioxane (25 mM) was diluted with PBS buffer (3 mL), and this solution was stored at 20° C. in the dark.
(§2) The fate of the TCO compound was monitored by HPLC-MS analysis, and an estimation of the half-life time was made based on the release of the model prodrug.

[4] = Reactivity of trans-cyclooctene derivatives: competition experiment; details: reference trans-cyclooct-4-ene-1-ol (axial isomer)
Description: A competition experiment was performed to determine the reactivity ratio of a specific trans-cyclooctene derivative and trans-cyclooct-4-ene-1-ol (axial isomer) (that was chosen as the reference), in the inverse-electron demand Diels-Alder reaction with bis(2-pyridyl)-1,2,4,5-tetrazine.
This mixture was diluted with water (0.45 mL). Subsequently, a solution of bis(2-pyridyl)-1,2,4,5-tetrazine (6.25×10^−8 mol) in a mixture of acetonitrile (0.05 mL) and water (0.45 mL) was slowly added while stirring vigorously. After addition, the mixture was stirred for an additional 5 min. The conversion of both trans-cyclooctene derivatives was determined by HPLC-MS/PDA analysis, and from these conversions, the reactivity ratio (R=k2,TCO/k2,Ref) of the specific trans-cyclooctene derivative was calculated using the mathematical procedure from Ingold and Shaw (J. Chem. Soc., 1927, 2918-2926).

[5] = Activation of doxorubicin prodrugs (release of doxorubicin); details: after 1 hr at 20° C.
Description: […] Next, […](E)-cyclooctene-doxorubicin conjugate (64, 2.67×10^−5 g; 2.50×10^−8 mol) was added.
[…] Next, (E)-cyclooctene-doxorubicin conjugate (68, 2.67×10^−5 g; 2.50×10^−8 mol) was added.

[6] = tested on: A431 squamous carcinoma cells; assay: Cell proliferation assay (MTT); format: cell-based; details: Homo sapiens
physchem = details: buffer
Description: as §1, §2

[7] = Second-order rate constant determination of trans-cyclooctene derivatives with tetrazine; details: UV-visible spectroscopy in acetonitrile at 20° C.
Description: The kinetics of the inverse-electron demand Diels-Alder reaction of a trans-cyclooctene derivative with 3-(5-acetamido-2-pyridyl)-6-(2-pyridyl)-1,2,4,5-tetrazine, performed in acetonitrile at 20° C., was determined using UV-visible spectroscopy. A cuvette was filled with acetonitrile (3 mL) and equilibrated at 20° C. 3-(5-Acetamido-2-pyridyl)-6-(2-pyridyl)-1,2,4,5-tetrazine (2.50×10^−7 mol) was added, followed by the trans-cyclooctene derivative (2.50×10^−7 mol). The decay of the absorption at λ=540 nm was monitored, and from this curve the second-order rate constant, k2, was determined assuming second order rate kinetics.

[8] = Reactivity of tetrazines towards trans-cyclooct-4-ene-1-ol (competition experiment); details: values marked *: 50:50 mixture of PBS and acetonitrile; reference tetrazine 5
[9] = values marked *: 50:50 mixture of PBS and acetonitrile
[10] = stability in PBS at 20° C. t1/2, PBS, 20° C.
[11] = stability in PBS t1/2, PBS, 37° C.

CCCC(=O)Nc1ccc(-c2nnc(-c3ccc(F)cn3)nn2)nc1
half-life at 83 µM ([1]; PBS buffer, PBS, 20° C.): 117 h | Reactivity ratio (R = k2,TZ/k2,Ref) [2]: 0.95

Cc1ccccc1OC(=O)NC1CC/C=C/CCC1N (stereo not drawn) [compound 39]
half-life at 83 µM [3]: 192 h

CC(C)(C)c1ccccc1OC(=O)NC1CC/C=C/CCC1N (stereo not drawn) [compound 45]
half-life at 83 µM [3]: > 480 h

NCc1ccc(-c2nncnn2)cc1
half-life at 83 µM ([1]; PBS buffer, PBS, 20° C.): 183 h | Reactivity ratio (R = k2,TZ/k2,Ref) [2]: 0.77

OC1CC/C=C/CCC1 (stereo not drawn) [axial isomer, trans-cyclooct-4-ene-1-ol, reference compound]
reactivity ratio** (R = k2,TCO/k2,Ref) [4]: 1 | half-life at 83 µM [3]: > 72 h

NCc1nnc(CN)nn1 [compound 20, 3,6-bis(aminomethyl)-1,2,4,5-tetrazine]
half-life at 83 µM ([1]; PBS buffer, PBS, 20° C.): 16 h

CCCNC(=O)c1ccc(-c2nnc(-c3ccccn3)nn2)nc1
half-life at 83 µM ([1]; PBS buffer, PBS, 20° C.): 4 h

Nc1ccc(-c2nnc(-c3ccc(N)cc3)nn2)cc1 [compound 13, 3,6-bis(4-aminophenyl)-1,2,4,5-tetrazine]
half-life at 83 µM [1, 9]: > 300 h

COc1cccc2c1C(=O)c1c(O)c3c(c(O)c1C2=O)C[C@@](O)(C(=O)CO)C[C@@H]3OC1CC(NC(=O)OCc2ccc(CC(=O)NC3CC/C=C/CCC3N)cc2)[C@H](O)C(C)O1 (stereo partly drawn) [compound 64, (E)-cyclooctene-doxorubicin conjugate]
doxorubicin released ([5]; with 3,6-Diphenyl-1,2,4,5-tetrazine): 48% | doxorubicin released ([5]; with 3-(5-Acetamido-2-pyridyl)-6-(2-pyridyl)-1,2,4,5-tetrazine (5)): 30% | doxorubicin released ([5]; with 3-(5-Butyramido-2-pyridyl)-6-(2-pyrimidyl)-1,2,4,5-tetrazine): 20% | doxorubicin released ([5]; with 3-Methyl-6-(2-pyridyl)-1,2,4,5-tetrazine (7)): 52% | doxorubicin released ([5]; with 4-(1,2,4,5-Tetrazin-3-yl)phenylmethanamine): 50% | IC50 ([6]; A-431, 6 h, A431 cell line, 6 h incubation at 37° C. followed by medium replacement): 0.128 ± 0.017 µM | IC50 ([6]; A-431, 6 h, A431 cell line, in combination with tetrazine 29 (10 μM), 6 h incubation at 37° C. followed by medium replacement): 0.049 ± 0.004 µM | IC50 ([6]; A-431, A431 cells, combination of the prodrug 64 and tetrazine 29): 0.049 ± 0.004 µM | IC50 ([6]; A-431, A431 cells, prodrug alone): 0.128 µM | half-life (physchem; [10]): 24 h | half-life (physchem; [11]): 3.6 h

c1ccc(-c2nncnn2)nc1
half-life at 83 µM ([1]; PBS buffer, PBS, 20° C.): 2.7 h

c1cc(-c2nnc(-c3ccncc3)nn2)ccn1
half-life at 83 µM ([1]; PBS buffer, PBS, 20° C.): 2.4 h | Reactivity ratio (R = k2,TZ/k2,Ref) [2]: 0.83

c1csc(-c2nnc(-c3cccs3)nn2)c1
half-life at 83 µM [1, 9]: > 300 h

c1cncc(-c2nnc(-c3cccnc3)nn2)c1
half-life at 83 µM ([1]; PBS buffer, PBS, 20° C.): > 150 h | Reactivity ratio (R = k2,TZ/k2,Ref) [2]: 0.19

Nc1cccc(-c2nnc(-c3ccccc3)nn2)c1
half-life at 83 µM [1, 9]: > 300 h

Fc1ccc(-c2nnc(-c3ccc(F)cn3)nn2)nc1
half-life at 83 µM ([1]; PBS buffer, PBS, 20° C.): 115 h

CCCNC(=O)c1ccc(-c2nnc(-c3ncccn3)nn2)nc1
half-life at 83 µM ([1]; PBS buffer, PBS, 20° C.): 0.42 h | Reactivity ratio (R = k2,TZ/k2,Ref) [2]: 2

O=C(Oc1ccccc1)N1C/C=C/CNCC1 [compound 61, (E)-phenyl 2,3,4,5-tetrahydro-1,4-diazocine-1(8H)-carboxylate]
rate contant* k2 [7]: 47 M⁻¹ s⁻¹ | half-life at 83 µM [3]: > 480 h

CCCC(=O)Nc1ccc(-c2nnc(C)nn2)nc1
half-life at 83 µM ([1]; PBS buffer, PBS, 20° C.): 300 h | Reactivity ratio (R = k2,TZ/k2,Ref) [2]: 0.18

Oc1ccc(-c2nnc(-c3ccc(O)cc3)nn2)cc1 [compound 11, 3,6-bis(4-hydroxyphenyl)-1,2,4,5-tetrazine]
half-life at 83 µM [1, 9]: > 300 h

CC(=O)Nc1ccc(-c2nnc(-c3ccccn3)nn2)nc1 [compound 5, 3-(5-acetamido-2-pyridyl)-6-(2-pyridyl)-1,2,4,5-tetrazine]
half-life at 83 µM ([1]; PBS buffer, PBS, 20° C.): 80 h | Reactivity ratio (R = k2,TZ/k2,Ref) [2]: 1

CCCC(=O)Nc1ccc(-c2nnc(-c3ccc(C(F)(F)F)cn3)nn2)nc1
half-life at 83 µM [1, 9]: 35 h

CCCC(=O)Nc1ccc(-c2nnc(-c3ncccn3)nn2)nc1
half-life at 83 µM ([1]; PBS buffer, PBS, 20° C.): 3.2 h | Reactivity ratio (R = k2,TZ/k2,Ref) [2]: 2.7

Cc1cccc(C)c1OC(=O)NC1CC/C=C/CCC1N (stereo not drawn) [compound 43]
half-life at 83 µM [3]: > 480 h

COc1ccccc1OC(=O)NC1CC/C=C/CCC1N (stereo not drawn) [compound 41]
half-life at 83 µM [3]: 21 h

c1ccc(-c2nnc(-c3ccccc3)nn2)cc1
half-life at 83 µM [1, 9]: > 300 h

COc1cccc2c1C(=O)c1c(O)c3c(c(O)c1C2=O)C[C@@](O)(C(=O)CO)C[C@@H]3OC1CC(NC(=O)OCc2cc(C)c(CC(=O)NC3CC/C=C/CCC3N)c(C)c2)[C@H](O)C(C)O1 (stereo partly drawn) [compound 68, (E)-cyclooctene-doxorubicin conjugate]
half-life (physchem; [10]): 624 h | half-life (physchem; [11]): 149 h

COc1cc(COC(=O)NC2CC/C=C/CCC2N)cc(OC)c1OC (stereo not drawn) [compound 37, cis-(E)-3,4,5-trimethoxybenzyl(8-aminocyclooct-4-en-1-yl)carbamate]
rate contant* k2 [7]: 300 M⁻¹ s⁻¹ | half-life at 83 µM [3]: > 240 h

CCCC(=O)Nc1ccc(-c2nncnn2)nc1
half-life at 83 µM ([1]; PBS buffer, PBS, 20° C.): 10.3 h | Reactivity ratio (R = k2,TZ/k2,Ref) [2]: 2.8

c1cc(-c2nnc(-c3ccsc3)nn2)cs1
half-life at 83 µM [1, 9]: > 300 h

Nc1ccccc1-c1nnc(-c2ccccc2N)nn1 [compound 9, 3,6-bis(2-aminophenyl)-1,2,4,5-tetrazine]
half-life at 83 µM [1, 9]: > 300 h | Reactivity ratio (R = k2,TZ/k2,Ref) [8]: <0 .01*

c1c[nH]c(-c2nnc(-c3ncc[nH]3)nn2)n1
Reactivity ratio (R = k2,TZ/k2,Ref) [2]: 1.2

NC1CC/C=C/CCC1NC(=O)Nc1ccccc1 (stereo not drawn) [47 major, cis phenyl((E)-8-aminocyclooct-4-en-1-yl)urea]
half-life at 83 µM [3]: > 480 h

COc1cccc2c1C(=O)c1c(O)c3c(c(O)c1C2=O)C[C@@](O)(C(=O)CO)C[C@@H]3O[C@H]1C[C@H](N)[C@H](O)[C@H](C)O1 [Dox, Doxorubicin, reference compound]
IC50 ([6]; A-431, A431 cell line, 6 h incubation at 37° C. followed by medium replacement, read-out: IC50): 0.038 ± 0.003 µM

c1cnc(-c2nnc(-c3cnccn3)nn2)cn1
half-life at 83 µM ([1]; PBS buffer, PBS, 20° C.): 0.68 h | Reactivity ratio (R = k2,TZ/k2,Ref) [2]: 1.5

c1c[nH]c(-c2nnc(-c3ccc[nH]3)nn2)c1
half-life at 83 µM [1, 9]: > 300 h

O=C1CCCC(=O)N1c1ccc(-c2nnc(-c3ccccn3)nn2)nc1
half-life at 83 µM ([1]; PBS buffer, PBS, 20° C.): 24 h | Reactivity ratio (R = k2,TZ/k2,Ref) [2]: 1.6

N[C@H]1CC/C=C/CC[C@H]1NC(=O)Oc1ccccc1 (relative stereo) [compound 36, cis-(E)-phenyl(8-aminocyclooct-4-en-1-yl)carbamate]
rate contant* k2 [7]: 240 M⁻¹ s⁻¹ | half-life at 83 µM [3]: 27 h

Cc1nnc(-c2ccccn2)nn1 [compound 7, 3-(2-pyridyl)-6-methyl-1,2,4,5-tetrazine]
half-life at 83 µM ([1]; PBS buffer, PBS, 20° C.): 230 h | Reactivity ratio (R = k2,TZ/k2,Ref) [2]: 0.25

NC1/C=C/CCCCC1NC(=O)Oc1ccccc1 (stereo not drawn) [compound 56, trans phenyl(E)-2-aminocyclooct-3-en-1-yl carbamate]
half-life at 83 µM [3]: 120 h

Nc1ccc(-c2nnc(-c3ccccn3)nn2)nc1
half-life at 83 µM ([1]; PBS buffer, PBS, 20° C.): 340 h | Reactivity ratio (R = k2,TZ/k2,Ref) [2]: 0.4

FC(F)(F)c1ccc(-c2nnc(-c3ccc(C(F)(F)F)cn3)nn2)nc1
half-life at 83 µM [1, 9]: 3.6 h

Nc1ccc(-c2nnc(-c3ccccc3)nn2)cc1
half-life at 83 µM [1, 9]: > 300 h

c1ccc(-c2nnc(-c3ccccn3)nn2)nc1 [compound 2, 3,6-bis(2-pyridyl)-1,2,4,5-tetrazine]
half-life at 83 µM ([1]; PBS buffer, PBS, 20° C.): 44 h

— US20160151505A1 (KONINKLIJKE PHILIPS N.V., priority 2011, published 2016)
